Patent US9708377B2, “Scorpion toxin analogue and method for treating autoimmune diseases” (MONASH UNIVERSITY, priority 2013, dated 2017)

Key:
[1] = molecular target: T1, mKv1.1 channels (Mus musculus, UniProt P16388); assay: Whole-cell patch-clamp block of Kv1.1 channels in L929 cells; format: cell-based; conditions: for current block on Kv1.1 channels: 100 nM, n=3, preliminary
T1 construct: expressed in transfected cells
Protocol: Cells and Cell Lines—L929 mouse fibroblast cells stably expressing mKv1.1 and mKv1.3 channels (Grissmer S et al., 1994) were maintained in DMEM medium (Invitrogen Corporation, Carlsbad, Calif., United States of America) supplemented with 100 IU/mL penicillin, 0.1 μg/mL streptomycin, 2 mM L-glutamine, 10% heat-inactivated foetal bovine serum, and 0.5 mg/mL G418 (EMD Chemicals, Gibbstown, N.J., United States of America).
Electrophysiological Analysis—Experiments were conducted at room temperature in the whole-cell configuration of the patch-clamp technique. A manual setup and an automated Port-a-patch setup (Nanion, North Brunswick, N.J., United States of America) were used in parallel, both linked to a HEKA EPC10USB amplifier. […] The bath solution contained (in mM): 160 NaCl, 4.5 KCl, 2 CaCl2, 1 MgCl2, 10 HEPES, pH 7.2, 300 mOsm. Kv currents were elicited every 30 s by 200-ms depolarising pulses from a holding potential of −80 mV to 40 mV. Kd values and Hill coefficients were determined by fitting the Hill equation to the reduction of peak current measured at 40 mV.

[2] = tested on: voltage-gated K+ channels; conditions: rat brain synaptosomal membranes; read-out: IC50 competition with 125I-kaliotoxin binding; cited from earlier work
[3] = molecular target: T2, Kv1.3 (Rattus norvegicus, UniProt P15384); conditions: C-terminal amidation; cited from earlier work
[4] = molecular target: Kv1.1 (Homo sapiens, UniProt Q09470); conditions: Kv1.1 complex; cited from earlier work
[5] = molecular target: T2, Kv1.3; conditions: Kv1.3 complex; cited from earlier work
[6] = molecular target: rat Kv1.3 channels (Rattus norvegicus, UniProt P15384); conditions: Lebrun B et al., 1997; read-out: IC50 inhibition of rat Kv1.3 channels; cited from earlier work
[7] = tested on: rat brain synaptosomal membranes; conditions: cited from earlier work

T1 sequence (P16388 whole entry): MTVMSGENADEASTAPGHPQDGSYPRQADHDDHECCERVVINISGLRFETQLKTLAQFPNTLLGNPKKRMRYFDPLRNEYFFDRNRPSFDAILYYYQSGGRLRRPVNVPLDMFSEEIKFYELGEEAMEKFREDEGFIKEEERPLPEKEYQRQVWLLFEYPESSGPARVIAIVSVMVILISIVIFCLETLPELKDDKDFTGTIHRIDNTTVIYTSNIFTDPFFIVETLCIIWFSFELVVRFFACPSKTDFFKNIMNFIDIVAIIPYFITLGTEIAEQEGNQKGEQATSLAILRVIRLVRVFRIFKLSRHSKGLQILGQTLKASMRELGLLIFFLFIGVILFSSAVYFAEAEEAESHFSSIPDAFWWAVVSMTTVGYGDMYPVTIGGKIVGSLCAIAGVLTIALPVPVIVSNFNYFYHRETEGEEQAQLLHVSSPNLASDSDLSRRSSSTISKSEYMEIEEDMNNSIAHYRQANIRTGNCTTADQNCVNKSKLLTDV
T2 sequence (P15384 whole entry): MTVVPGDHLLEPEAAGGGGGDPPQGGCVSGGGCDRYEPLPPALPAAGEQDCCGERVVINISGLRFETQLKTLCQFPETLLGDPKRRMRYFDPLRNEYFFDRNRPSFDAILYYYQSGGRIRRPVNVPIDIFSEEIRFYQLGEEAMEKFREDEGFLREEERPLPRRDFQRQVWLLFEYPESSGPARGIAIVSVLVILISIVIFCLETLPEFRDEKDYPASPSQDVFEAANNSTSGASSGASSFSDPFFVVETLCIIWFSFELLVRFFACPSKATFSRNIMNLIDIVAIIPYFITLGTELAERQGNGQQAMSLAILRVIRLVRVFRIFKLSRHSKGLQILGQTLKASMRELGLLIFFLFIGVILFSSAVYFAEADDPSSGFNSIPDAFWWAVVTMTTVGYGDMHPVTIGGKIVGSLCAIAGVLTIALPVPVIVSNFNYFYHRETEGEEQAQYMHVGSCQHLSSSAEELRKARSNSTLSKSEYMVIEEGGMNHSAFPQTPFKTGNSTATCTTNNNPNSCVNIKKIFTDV
Chain of Kv1.1 (Q09470 whole entry): as the sequence (P16388 whole entry) above, with A9V, T14A, I202V, T213N, I449M, A471V, G476A, D482N counted along it
Chain of rat Kv1.3 channels (P15384 whole entry): as the sequence (P15384 whole entry) above

| Molecule | IC50 [1] [nM] | current block on Kv1.1 channels [1] | IC50 [2] [pM] | affinity for Kv1.3 of amidated form compared to synthetic carboxylated form [3] | Gb (exp) experimental binding free energy [4] [kcal/mol] | Gb (exp) experimental binding free energy [5] [kcal/mol] | IC50 [6] [nM] | competition with 125I-apamin binding [7] |
| --- | --- | --- | --- | --- | --- | --- | --- | --- |
| CSCC[C@@H]1NC(=O)[C@@H]2CSSC[C@H](NC(=O)[C@H](CO)NC(=O)[C@H](C)N)C(=O)N[C@@H](CCCNC(=N)N)C(=O)N[C@@H]([C@@H](C)O)C(=O)N3CCC[C@H]3C(=O)N[C@@H](CCCCN)C(=O)N[C@@H](CC(=O)O)C(=O)N[C@H]3CSSC[C@H](NC(=O)[C@H](CCCCN)NC(=O)[C@H](CCCNC(=N)N)NC(=O)[C@H](CC(N)=O)NC1=O)C(=O)N[C@@H](CCCCN)C(=O)N[C@H]1CSSC[C@H](NC(=O)[C@@H]4CCCN4C(=O)[C@H](CC(=O)O)NC(=O)[C@H](C)NC3=O)C(=O)N[C@@H](C)C(=O)N[C@@H](CCCCN)C(=O)N[C@@H](CCC(=O)O)C(=O)N[C@@H]([C@@H](C)O)C(=O)NCC(=O)N[C@@H](CSSC[C@@H](C(N)=O)NC(=O)[C@H](CCCNC(=N)N)NC(=O)[C@H](CC(N)=O)NC1=O)C(=O)N1CCC[C@H]1C(=O)N[C@@H](Cc1ccc(O)cc1)C(=O)NCC(=O)N[C@@H](CCCCN)C(=O)N2 [HsTX1[R14A]] | > 100 | 10-16% |  |  |  |  |  |  |
| CC[C@@H]1NC(=O)[C@@H]2CSSC[C@@H]3NC(=O)[C@H](CCCCN)NC(=O)[C@@H]4CSSC[C@H](NC(=O)[C@H](CC(=O)O)NC(=O)[C@H](CCCCN)NC(=O)[C@@H]5CCCN5C(=O)[C@H]([C@@H](C)O)NC(=O)[C@H](CCCNC(=N)N)NC(=O)[C@@H](NC(=O)[C@H](CO)NC(=O)[C@H](C)N)CSSC[C@H](NC(=O)[C@H](CCCCN)NC(=O)CNC(=O)[C@H](Cc5ccc(O)cc5)NC(=O)[C@@H]5CCCN5C(=O)[C@H](CSSC[C@@H](C(N)=O)NC(=O)[C@H](CCCNC(=N)N)NC(=O)[C@H](CC(N)=O)NC3=O)NC(=O)CNC(=O)[C@H]([C@@H](C)O)NC(=O)[C@H](CCC(=O)O)NC(=O)[C@H](CCCCN)NC1=O)C(=O)N[C@@H](CCSC)C(=O)N[C@@H](CC(N)=O)C(=O)N[C@@H](CCCNC(=N)N)C(=O)N[C@@H](CCCCN)C(=O)N4)C(=O)N[C@@H](C)C(=O)N[C@@H](CC(=O)O)C(=O)N1CCC[C@H]1C(=O)N2 [HsTX1[R14Abu], ASCRTPKDCADPCXKETGCPYGKCMNRKCKCNRC] | > 100 | 15-20% |  |  |  |  |  |  |
| ASCRTPKDCADPCRKETGCPYGKCMNRKCKCNRC [HsTX1] |  |  | ~1 | five-fold greater affinity for Kv1.3 | -11.1 ± 0.1 | -14.9 ± 0.2 | ~0.012 | did not compete |
